The values that follow come from ChEMBL document CHEMBL5338817, “Discovery of Exceptionally Potent, Selective, and Efficacious PROTAC Degraders of CBP and p300 Proteins” (J Med Chem, 2023).

Data set [1] relates to MOLM-13. Put plainly: Cytotoxicity against human MOLM-13 cells assessed as inhibition of cell growth incubated for 4 days by cellTiter-Glo assay. It counts as functional, cell-based. The note with it: MOLM-13, 96 h. Background: ATP-based viability assays read luminescence as a measure of living cells.
Data set [2] relates to MOLM-13. Put plainly: Cytotoxicity against human MOLM-13 cells assessed as maximum inhibition of cell growth incubated for 4 days by cellTiter-Glo assay relative to control. It is filed as functional. The note with it: time 4 day.
Data set [3] relates to RS4-11. Put plainly: Cytotoxicity against human RS4-11 cells assessed as maximum inhibition of cell growth incubated for 4 days by cellTiter-Glo assay relative to control. It counts as functional. The note with it: time 4 day.
In data set [4] the test system is HL-60. Put plainly: Cytotoxicity against human HL-60 cells assessed as maximum inhibition of cell growth incubated for 4 days by cellTiter-Glo assay relative to control. It counts as functional. Conditions: time 4 day.
The test system of data set [5] is HL-60. Put plainly: Cytotoxicity against human HL-60 cells assessed as inhibition of cell growth incubated for 4 days by cellTiter-Glo assay. It counts as functional, cell-based. Conditions: HL-60, 96 h.
For data set [6], the system named is MV4-11. Put plainly: Cytotoxicity against human MV4-11 cells assessed as inhibition of cell growth incubated for 4 days by cellTiter-Glo assay. It counts as functional, cell-based. Conditions: MV4-11, 96 h.
In data set [7] the test system is MV4-11. Put plainly: Cytotoxicity against human MV4-11 cells assessed as maximum inhibition of cell growth incubated for 4 days by cellTiter-Glo assay relative to control. It counts as functional. The note with it: time 4 day.
In data set [8] the test system is RS4-11. Put plainly: Cytotoxicity against human RS4-11 cells assessed as inhibition of cell growth incubated for 4 days by cellTiter-Glo assay. It counts as functional, cell-based. The note with it: RS4-11, 96 h.
The test system of data set [9] is RS4-11. Put plainly: Induction of cell cycle arrest in human RS4-11 cells assessed as accumulation at G1 phase at 1 uM measured after 8 hrs by PI staining based flow cytometric analysis. It counts as functional. For orientation: In flow cytometry, cells or beads pass a laser one at a time.
The test system of data set [10] is RS4-11. Put plainly: Downregulation of MYC gene expression in human RS4-11 cells at 1 nM measured after 8 hrs by qRT-PCR analysis. It counts as functional, cell-based. A general note: Quantitative PCR measures a nucleic acid by following its amplification.
The test system of data set [11] is RS4-11. Put plainly: Antitumor activity against human RS4-11 cells xenografted in SCID mouse assessed as tumor growth inhibition at 0.3 mg/kg, ip administered five days a week for 2 weeks relative to control. Also noted: scale not given: the % may be the effect or the level left. It is filed as functional.
Data set [12] concerns RS4-11. Put plainly: Antitumor activity against human RS4-11 cells xenografted in SCID mouse assessed as tumor growth inhibition at 1 mg/kg, ip administered twice a week on day 1 and day 4 for 2 weeks relative to control. It is filed as functional. Set-up: scale not given: the % may be the effect or the level left.
Data set [13] relates to RS4-11. Put plainly: Antitumor activity against human RS4-11 cells xenografted in SCID mouse assessed as tumor growth inhibition at 3 mg/kg, ip administered once a week on day 1 for 2 weeks relative to control. It counts as functional. Set-up: scale not given: the % may be the effect or the level left.
Data set [14] in a line: Drug concentration in SCID mouse tumor xenografted with RS4-11 cells at 1 mg/kg, ip measured after 3 hrs by LC-HRMS method. It counts as ADME, organism-based, Neoplasm. Conditions: read-out: Ct.
The test system of data set [15] is Mus musculus. Put plainly: In vivo induction of CBP degradation in human RS4-11 cells xenografted in SCID mouse at 3 mg/kg, ip measured after 24 to 48 hrs by Western blot analysis. It counts as functional, organism-based. Conditions: time 24-48 hrs.
In data set [16] the test system is Mus musculus. Put plainly: In vivo induction of p300 degradation in human RS4-11 cells xenografted in SCID mouse at 3 mg/kg, ip measured after 24 to 48 hrs by Western blot analysis. It counts as functional, organism-based. Conditions: time 24-48 hrs.
The subject of data set [17] is RS4-11. Put plainly: Downregulation of MYB gene expression in human RS4-11 cells at 1 nM measured after 8 hrs by qRT-PCR analysis. It counts as functional, cell-based.
Data set [18] concerns Mus musculus. Put plainly: In vivo induction of CBP degradation in human RS4-11 cells xenografted in SCID mouse at 1 mg/kg, ip measured after 3 hrs by Western blot analysis. It counts as functional, organism-based.
For data set [19], the target named is T1, Histone acetyltransferase p300 (Homo sapiens, UniProt Q09472). Put plainly: Induction of p300 degradation in human RS4-11 cells at 10 nM incubated for 3 hrs by Proteomics analysis. It is filed as cell-based.
T1 sequence (Q09472 whole entry): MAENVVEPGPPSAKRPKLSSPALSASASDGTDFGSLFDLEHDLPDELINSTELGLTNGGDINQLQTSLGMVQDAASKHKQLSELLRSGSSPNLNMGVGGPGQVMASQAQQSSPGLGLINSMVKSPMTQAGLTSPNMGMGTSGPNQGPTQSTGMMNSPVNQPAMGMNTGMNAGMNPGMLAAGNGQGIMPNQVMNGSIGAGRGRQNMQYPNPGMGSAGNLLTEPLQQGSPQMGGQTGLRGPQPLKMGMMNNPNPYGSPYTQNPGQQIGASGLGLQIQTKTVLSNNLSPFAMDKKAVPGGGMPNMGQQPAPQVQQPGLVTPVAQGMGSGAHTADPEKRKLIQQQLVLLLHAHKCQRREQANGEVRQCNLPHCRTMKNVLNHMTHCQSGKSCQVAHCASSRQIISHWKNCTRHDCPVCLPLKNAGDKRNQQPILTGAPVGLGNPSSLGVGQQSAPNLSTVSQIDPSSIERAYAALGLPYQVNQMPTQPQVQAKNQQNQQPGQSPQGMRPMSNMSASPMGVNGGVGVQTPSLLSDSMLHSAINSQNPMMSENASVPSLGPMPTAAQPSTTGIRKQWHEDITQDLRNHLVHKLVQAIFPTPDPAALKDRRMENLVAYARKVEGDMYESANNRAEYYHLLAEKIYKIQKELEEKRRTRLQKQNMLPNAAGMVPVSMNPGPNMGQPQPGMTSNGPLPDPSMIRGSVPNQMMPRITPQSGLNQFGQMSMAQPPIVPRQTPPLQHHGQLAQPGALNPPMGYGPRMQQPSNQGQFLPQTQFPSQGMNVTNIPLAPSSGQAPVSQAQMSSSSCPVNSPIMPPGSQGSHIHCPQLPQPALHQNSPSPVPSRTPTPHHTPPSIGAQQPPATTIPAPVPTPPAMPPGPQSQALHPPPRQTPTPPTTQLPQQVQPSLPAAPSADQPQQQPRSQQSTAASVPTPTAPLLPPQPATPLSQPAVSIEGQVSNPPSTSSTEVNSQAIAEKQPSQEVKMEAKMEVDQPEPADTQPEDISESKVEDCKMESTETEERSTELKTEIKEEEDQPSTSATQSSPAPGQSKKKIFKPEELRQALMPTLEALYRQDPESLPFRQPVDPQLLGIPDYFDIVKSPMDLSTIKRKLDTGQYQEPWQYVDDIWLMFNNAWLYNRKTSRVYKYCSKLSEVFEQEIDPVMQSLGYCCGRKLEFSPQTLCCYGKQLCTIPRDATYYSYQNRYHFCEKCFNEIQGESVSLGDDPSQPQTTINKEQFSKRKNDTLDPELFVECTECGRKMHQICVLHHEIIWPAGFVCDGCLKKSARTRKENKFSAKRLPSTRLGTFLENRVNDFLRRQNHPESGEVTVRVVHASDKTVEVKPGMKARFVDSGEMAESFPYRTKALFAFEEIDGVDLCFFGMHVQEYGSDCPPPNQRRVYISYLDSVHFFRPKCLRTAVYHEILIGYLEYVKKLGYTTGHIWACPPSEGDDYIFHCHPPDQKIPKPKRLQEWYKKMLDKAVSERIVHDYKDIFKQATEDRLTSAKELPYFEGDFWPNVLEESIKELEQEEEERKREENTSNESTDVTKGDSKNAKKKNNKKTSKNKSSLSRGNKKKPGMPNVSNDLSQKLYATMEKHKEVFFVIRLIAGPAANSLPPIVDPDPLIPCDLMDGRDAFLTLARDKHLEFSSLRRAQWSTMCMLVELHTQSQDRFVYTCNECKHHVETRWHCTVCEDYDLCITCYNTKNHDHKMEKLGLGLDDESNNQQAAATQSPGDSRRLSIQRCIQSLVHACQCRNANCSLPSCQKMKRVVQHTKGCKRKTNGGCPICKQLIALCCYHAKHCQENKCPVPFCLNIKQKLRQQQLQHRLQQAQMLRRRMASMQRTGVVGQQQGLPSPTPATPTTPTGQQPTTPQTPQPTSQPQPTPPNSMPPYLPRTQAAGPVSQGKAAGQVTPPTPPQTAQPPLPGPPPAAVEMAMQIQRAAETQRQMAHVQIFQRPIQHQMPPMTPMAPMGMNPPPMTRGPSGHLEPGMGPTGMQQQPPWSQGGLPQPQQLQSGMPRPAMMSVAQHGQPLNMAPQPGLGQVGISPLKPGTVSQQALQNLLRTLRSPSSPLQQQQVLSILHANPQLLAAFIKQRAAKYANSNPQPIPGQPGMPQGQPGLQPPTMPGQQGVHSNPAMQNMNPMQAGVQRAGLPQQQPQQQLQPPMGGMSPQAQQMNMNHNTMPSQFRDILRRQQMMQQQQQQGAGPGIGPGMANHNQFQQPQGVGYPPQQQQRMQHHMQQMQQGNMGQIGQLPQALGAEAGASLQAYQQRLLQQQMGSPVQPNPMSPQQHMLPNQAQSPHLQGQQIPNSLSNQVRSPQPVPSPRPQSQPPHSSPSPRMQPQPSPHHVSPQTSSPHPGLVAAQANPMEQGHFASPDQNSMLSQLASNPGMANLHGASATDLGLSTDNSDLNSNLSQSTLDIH
Data set [20] deals with Bromodomain-containing protein 4 (Homo sapiens) (UniProt O60885). Put plainly: Induction of BRD4 degradation in human RS4-11 cells at 10 nM incubated for 4 hrs by Western blot analysis. It counts as cell-based.
The target of data set [21] is T1, Histone acetyltransferase p300. Put plainly: Induction of p300 degradation in human RS4-11 cells incubated for 4 hrs by Western blot assay. It counts as cell-based.
Data set [22] relates to RS4-11. Put plainly: In vivo induction of p300 degradation in human RS4-11 cells xenografted in SCID mouse at 3 mg/kg, ip measured after 3 to 6 hrs by Western blot analysis. It is filed as functional, organism-based. The note with it: time 3-6 hrs.
The target of data set [23] is T1, Histone acetyltransferase p300. Put plainly: Induction of p300 degradation in human RS4-11 cells assessed as maximal degradation incubated for 4 hrs by Western blot assay relative to control. It is filed as cell-based.
Data set [24] concerns RS4-11. Put plainly: Antitumor activity against human RS4-11 cells xenografted in SCID mouse assessed as tumor growth inhibition at 1 mg/kg, ip administered thrice a week on day 1, 3 and 5 for 2 weeks relative to control. Set-up: scale not given: the % may be the effect or the level left. It is filed as functional.
A short description of data set [25]: Toxicity in SCID mouse xenografted with human RS4-11 cells assessed as body weight loss at 3 mg/kg, ip administered once a week on day 1 for 2 weeks relative to control. It is filed as organism-based. The note with it: in vivo, 336 h.
The target in data set [26] is Non-selective voltage-gated ion channel VDAC1 (Homo sapiens) (UniProt P21796). Put plainly: Induction of VDAC1 degradation in human RS4-11 cells assessed as fold reduction in protein level at 10 nM incubated for 4 hrs by Western blot analysis. It is filed as cell-based.
Chain of Non-selective voltage-gated ion channel VDAC1 (Homo sapiens) (P21796 whole entry): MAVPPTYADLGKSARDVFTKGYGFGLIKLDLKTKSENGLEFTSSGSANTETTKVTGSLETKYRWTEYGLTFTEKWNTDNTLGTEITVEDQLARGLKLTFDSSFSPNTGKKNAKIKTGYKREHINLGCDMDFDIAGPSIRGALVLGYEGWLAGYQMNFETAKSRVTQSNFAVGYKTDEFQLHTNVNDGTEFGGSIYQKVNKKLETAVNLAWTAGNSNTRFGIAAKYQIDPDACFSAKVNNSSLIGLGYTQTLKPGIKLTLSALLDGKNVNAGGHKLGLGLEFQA
Data set [27] has as its target T2, CREB-binding protein (Homo sapiens, UniProt Q92793). Put plainly: Induction of CBP degradation in human RS4-11 cells at 10 nM incubated for 3 hrs by Proteomics analysis. It counts as cell-based.
Target sequence in this assay (Q92793 2-2442 limits assumed): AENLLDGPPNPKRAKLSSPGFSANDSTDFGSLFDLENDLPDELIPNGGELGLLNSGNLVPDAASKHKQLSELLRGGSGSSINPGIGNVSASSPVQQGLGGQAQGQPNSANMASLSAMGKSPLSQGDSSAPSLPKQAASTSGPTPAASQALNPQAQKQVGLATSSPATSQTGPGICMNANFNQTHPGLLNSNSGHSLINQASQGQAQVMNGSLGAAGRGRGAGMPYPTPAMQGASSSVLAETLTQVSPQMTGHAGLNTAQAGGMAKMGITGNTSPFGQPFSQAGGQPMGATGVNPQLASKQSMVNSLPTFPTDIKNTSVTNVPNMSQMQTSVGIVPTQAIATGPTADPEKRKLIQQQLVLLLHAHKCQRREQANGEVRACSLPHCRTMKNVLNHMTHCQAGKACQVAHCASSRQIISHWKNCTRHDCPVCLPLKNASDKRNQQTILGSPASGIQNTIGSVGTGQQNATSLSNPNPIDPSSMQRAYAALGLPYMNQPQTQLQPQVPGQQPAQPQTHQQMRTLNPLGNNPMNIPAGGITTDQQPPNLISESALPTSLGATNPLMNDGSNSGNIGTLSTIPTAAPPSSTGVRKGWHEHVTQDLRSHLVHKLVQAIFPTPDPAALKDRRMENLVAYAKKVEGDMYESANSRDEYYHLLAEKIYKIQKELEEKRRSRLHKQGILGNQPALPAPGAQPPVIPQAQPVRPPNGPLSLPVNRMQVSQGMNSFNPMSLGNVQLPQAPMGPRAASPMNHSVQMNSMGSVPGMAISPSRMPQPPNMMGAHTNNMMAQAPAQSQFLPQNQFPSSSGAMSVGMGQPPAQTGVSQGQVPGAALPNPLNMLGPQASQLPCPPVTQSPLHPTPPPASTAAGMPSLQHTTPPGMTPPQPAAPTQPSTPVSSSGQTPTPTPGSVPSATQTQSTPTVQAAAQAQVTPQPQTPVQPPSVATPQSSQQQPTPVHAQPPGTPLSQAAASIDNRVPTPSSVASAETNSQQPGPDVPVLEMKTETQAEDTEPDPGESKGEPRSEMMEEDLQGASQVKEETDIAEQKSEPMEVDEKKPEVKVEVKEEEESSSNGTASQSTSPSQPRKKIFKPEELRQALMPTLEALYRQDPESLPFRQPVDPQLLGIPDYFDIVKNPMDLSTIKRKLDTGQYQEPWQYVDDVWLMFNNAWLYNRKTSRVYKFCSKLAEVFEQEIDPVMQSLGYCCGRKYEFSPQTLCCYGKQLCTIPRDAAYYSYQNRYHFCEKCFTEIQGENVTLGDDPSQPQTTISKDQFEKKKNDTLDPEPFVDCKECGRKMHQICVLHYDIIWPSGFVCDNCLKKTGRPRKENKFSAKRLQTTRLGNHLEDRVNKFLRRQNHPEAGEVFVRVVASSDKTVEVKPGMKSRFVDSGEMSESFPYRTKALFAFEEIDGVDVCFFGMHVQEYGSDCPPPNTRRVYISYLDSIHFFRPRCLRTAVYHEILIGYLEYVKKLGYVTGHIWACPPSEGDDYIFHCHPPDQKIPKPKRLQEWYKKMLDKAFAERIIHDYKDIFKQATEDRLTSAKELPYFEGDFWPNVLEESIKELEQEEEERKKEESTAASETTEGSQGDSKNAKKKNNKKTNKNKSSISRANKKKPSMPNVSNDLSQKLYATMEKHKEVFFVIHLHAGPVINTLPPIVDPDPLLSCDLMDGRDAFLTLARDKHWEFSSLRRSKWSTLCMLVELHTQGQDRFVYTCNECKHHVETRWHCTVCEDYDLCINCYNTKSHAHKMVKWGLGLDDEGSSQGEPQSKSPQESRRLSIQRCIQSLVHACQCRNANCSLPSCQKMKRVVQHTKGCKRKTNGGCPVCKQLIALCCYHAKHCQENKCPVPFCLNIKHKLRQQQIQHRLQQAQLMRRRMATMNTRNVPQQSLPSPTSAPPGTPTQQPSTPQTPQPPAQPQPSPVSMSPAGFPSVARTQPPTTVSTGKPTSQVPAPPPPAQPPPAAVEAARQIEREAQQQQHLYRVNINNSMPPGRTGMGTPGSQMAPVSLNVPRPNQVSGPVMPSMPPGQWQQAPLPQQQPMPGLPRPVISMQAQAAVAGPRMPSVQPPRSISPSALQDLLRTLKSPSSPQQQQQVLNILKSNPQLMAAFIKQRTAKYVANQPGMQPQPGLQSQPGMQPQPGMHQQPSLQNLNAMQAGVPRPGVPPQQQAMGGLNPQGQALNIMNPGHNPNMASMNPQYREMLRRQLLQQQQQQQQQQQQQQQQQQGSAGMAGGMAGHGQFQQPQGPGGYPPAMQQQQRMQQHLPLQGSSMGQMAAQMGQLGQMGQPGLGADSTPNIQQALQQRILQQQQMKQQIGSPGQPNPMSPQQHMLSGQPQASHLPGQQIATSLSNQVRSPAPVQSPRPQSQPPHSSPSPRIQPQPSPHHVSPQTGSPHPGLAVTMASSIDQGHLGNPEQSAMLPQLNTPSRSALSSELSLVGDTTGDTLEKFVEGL
A short description of data set [28]: Toxicity in SCID mouse xenografted with human RS4-11 cells assessed as body weight loss at 1 mg/kg, ip administered three times a week for 2 weeks relative to control. It counts as organism-based. The note with it: in vivo, 336 h.
In data set [29] the target is T2, CREB-binding protein. Put plainly: Induction of CBP degradation in human RS4-11 cells incubated for 4 hrs by Western blot assay. It counts as cell-based.
For data set [30], the system named is Mus musculus. Put plainly: In vivo induction of p300 degradation in human RS4-11 cells xenografted in SCID mouse at 1 mg/kg, ip measured after 3 hrs by Western blot analysis. It is filed as functional, organism-based.
Data set [31] addresses T2, CREB-binding protein. Put plainly: Induction of CBP degradation in human RS4-11 cells assessed as maximal degradation incubated for 4 hrs by Western blot assay. It counts as cell-based.
Target sequence in this assay (Q92793 2-2442 limits assumed): as above
Data set [32] can be described thus: Drug concentration in IP dosed SCID mouse tumor xenografted with RS4-11 cells measured after 24 to 48 hrs by LC-HRMS method. It is filed as ADME, organism-based, Neoplasm. Conditions: in vivo, time 24-48 hrs.
The subject of data set [33] is RS4-11. Put plainly: In vivo induction of CBP degradation in human RS4-11 cells xenografted in SCID mouse at 3 mg/kg, ip measured after 3 to 6 hrs by Western blot analysis. It counts as functional, organism-based. Conditions: time 3-6 hrs.
Data set [34] is described as follows: Drug concentration in SCID mouse tumor xenografted with RS4-11 cells at 3 mg/kg, ip measured after 3 hrs by LC-HRMS method. The note with it: read-out: Ct. It counts as ADME, organism-based, Neoplasm.
Data set [35] in a line: Toxicity in SCID mouse xenografted with human RS4-11 cells assessed as body weight loss at 0.3 mg/kg, ip administered five days a week for 2 weeks relative to control. It is filed as organism-based. The note with it: in vivo, 336 h.
The nature of data set [36]: Toxicity in SCID mouse xenografted with human RS4-11 cells assessed as body weight loss at 1 mg/kg, ip administered twice a week on day 1 and day 4 for 2 weeks relative to control. It is filed as organism-based. Conditions: in vivo, 336 h.
Data set [37] addresses T3, Non-selective voltage-gated ion channel VDAC2 (Homo sapiens) (UniProt P45880).
T3 sequence (whole entry): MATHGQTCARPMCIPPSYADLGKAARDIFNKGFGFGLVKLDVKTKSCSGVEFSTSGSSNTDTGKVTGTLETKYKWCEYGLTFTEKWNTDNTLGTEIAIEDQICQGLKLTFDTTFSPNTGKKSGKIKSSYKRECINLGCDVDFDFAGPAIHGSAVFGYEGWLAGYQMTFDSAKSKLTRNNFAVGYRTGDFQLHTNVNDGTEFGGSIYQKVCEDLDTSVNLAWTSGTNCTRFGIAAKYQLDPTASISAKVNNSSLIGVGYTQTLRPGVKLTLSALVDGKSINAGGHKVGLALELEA
Put plainly: Induction of VDAC2 degradation in human RS4-11 cells assessed as fold reduction in protein level at 10 nM incubated for 4 hrs by Western blot analysis. It counts as cell-based.

Structures are written as SMILES. Several values for one entry are separate records, joined by “and”; a condition that tells them apart may be missing. Equal values may be shown once. Activity calls are given as the source filed them. The calls are words filed in the database; no cut-off is given here. Some results are limits rather than exact numbers.

Regarding `CNC(=O)Nc1ccc2c(c1)CC[C@]21CN(CC(=O)N(Cc2ccc(F)cc2)[C@H](C)C(F)(F)F)C(=O)O1`, the values for the IC50 in the data set with MOLM-13 [1], with HL-60 [5] and in the data set with MV4-11 [6] were 239 nM, 152 nM and 156 nM, respectively. The Imax in the data set with MOLM-13 [2] is 96%; in the data set with RS4-11 [3] (96 h), 93.5% and 89% and 99%; with HL-60 [4] it was 99%; with MV4-11 [7], 94%.
For the molecule `CNC(=O)c1ccc(-c2cc3cccc(-c4nn(C5CCOCC5)c5c4CN(C(C)=O)CC5)c3cn2)cn1`, the Imax in the data set on MOLM-13 [2] came out at 98%; in the data set with RS4-11 [3] it was 75%; in the data set on HL-60 [4] it was 99%; with MV4-11 [7], 94%.
On to `CO[C@H]1CC[C@@H](n2c(C3CCCC(=O)N3c3ccc(F)c(F)c3)nc3cc(-c4c(C)noc4C)ccc32)CC1` (some centres not stated), for which the 50% inhibitory concentration (IC50) came out at 23 nM in the data set on MOLM-13 [1], 544 nM with RS4-11 [8], 30 nM with HL-60 [5] and 51.6 nM in the data set with MV4-11 [6]. The Imax in the data set on MOLM-13 [2] is on record as 99%; with RS4-11 [3], 99.8%; with HL-60 [4], 99%; in the data set on MV4-11 [7], 98%. In addition, in the data set on RS4-11 [9], the result was Active.
In the case of `CC(=O)N1CCc2c(c(-c3cccc4cc(-c5ccc(C(=O)NC6CCN(c7ccc8c(c7)CN(C7CCC(=O)NC7=O)C8=O)CC6)nc5)ncc34)nn2C2CCOCC2)C1` (configuration not stated), the outcome (in the data set with RS4-11 [10]; in the data set with RS4-11 [17]; in the data set with Mus musculus [18]; in data set [19]; in the data set with RS4-11 [22]; in the data set on RS4-11 [9]) was Active. Moreover, the outcome on CREB-binding protein [27], with Mus musculus [30] and in the data set on RS4-11 [33] was Active. Besides, the Activity was 68% in the data set on RS4-11 [11]; 81% in the data set on RS4-11 [12]; 81% with RS4-11 [13]; 68% with RS4-11 [24]; < 10% in data set [25]; < 3% in [28]. Besides, the Activity in [35] was < 3%; in data set [36], < 10%. For the same molecule, the IC50 in the data set with MOLM-13 [1] amounted to 2.3 nM; in the data set on RS4-11 [8] it was 0.1 nM; with HL-60 [5], 0.54 nM; with MV4-11 [6] it was 0.04 nM. Moreover, the Imax with MOLM-13 [2] is listed as 96%; in the data set on RS4-11 [3] it was 94%; in the data set on HL-60 [4] it was 96%; with MV4-11 [7] it was 99%. The values for the concentration at 3 h in data set [14] and in data set [34] were 57.5 ng/g and 240 ng/g, respectively. Also, the result (in the data set on Mus musculus [15]; in the data set on Mus musculus [16]; in data set [20]) was inactive. Further, the values for the EC50 (in data set [21]; at CREB-binding protein [29]) were 0.2 nM and 0.05 nM, respectively. In addition, the maximal response (Emax) (in [23]; at CREB-binding protein [31]) was 99% throughout. The fold change (FC) in data set [26] and in data set [37] was 2 throughout. The Drug uptake entry in data set [32] is on record as “Not Active”.

As a reminder, the IC50 is the concentration that gives 50% inhibition. As a reminder, the EC50 is the concentration that produces a half-maximal response. The Emax is the size of the effect at its maximum, as opposed to the concentration needed.
